In brackets after ≈: the same amount, converted by molar mass. Like-named read-outs stand apart in the source and are kept apart here.
Experiments:
CHI Log D procedure = assay type: physicochemical; conditions: pH 7.4
[1] = target: T1, full-length beta-Catenin (Uniprot ID P35222) (Homo sapiens, UniProt P35222); assay: Fluorescence polarization IC50 (beta-catenin / 5FAM-TCF4 10-53 competition); assay type: binding
T1 construct: 10 nM full-length beta-Catenin (Uniprot ID P35222)
T1 sequence (P35222 1-781): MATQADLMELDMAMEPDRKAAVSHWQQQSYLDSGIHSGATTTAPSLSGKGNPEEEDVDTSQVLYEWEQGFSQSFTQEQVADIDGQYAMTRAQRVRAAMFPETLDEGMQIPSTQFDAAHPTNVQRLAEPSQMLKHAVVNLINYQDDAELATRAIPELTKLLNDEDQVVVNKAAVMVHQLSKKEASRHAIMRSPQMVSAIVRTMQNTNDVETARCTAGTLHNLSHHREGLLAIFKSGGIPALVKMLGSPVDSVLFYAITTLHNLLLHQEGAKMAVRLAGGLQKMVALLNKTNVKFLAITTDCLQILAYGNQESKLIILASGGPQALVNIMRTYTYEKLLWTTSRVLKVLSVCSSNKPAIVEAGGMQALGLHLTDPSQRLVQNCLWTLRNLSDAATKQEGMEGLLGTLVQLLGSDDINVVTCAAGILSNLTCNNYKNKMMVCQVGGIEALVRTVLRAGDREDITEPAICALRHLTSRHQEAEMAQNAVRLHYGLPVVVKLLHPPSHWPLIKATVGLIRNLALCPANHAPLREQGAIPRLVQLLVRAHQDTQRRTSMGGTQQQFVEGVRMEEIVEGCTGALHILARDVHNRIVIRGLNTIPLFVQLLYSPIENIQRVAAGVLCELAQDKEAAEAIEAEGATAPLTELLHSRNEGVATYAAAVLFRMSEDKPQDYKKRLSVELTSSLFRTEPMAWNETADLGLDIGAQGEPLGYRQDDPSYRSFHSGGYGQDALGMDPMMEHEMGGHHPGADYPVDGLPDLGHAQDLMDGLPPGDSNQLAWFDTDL

Solubility in PBS = assay type: physicochemical
In short: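 HPLC quantitation of peptide remaining in the PBS supernatant after ultracentrifugation, referenced to a 50 μM solution in DMSO.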

[2] = fluorescence polarization, read-out: beta-Catenin FP IC50
[3] = fluorescence polarization, beta-catenin, read-out: FP EC50

| SMILES | CHI Log D (CHI Log D procedure) | IC50 [1, 2] [nM] | IC50 ([1]; read-out: FP EC50) [nM] | Solubility (Solubility in PBS) [µM] | IC50 ([1]; Table E2-1, read-out: beta-Catenin FP IC50) [nM] | IC50 [1, 3] [nM] | IC50 ([1]; read-out: beta-Catenin FP IC50) [nM] |
| --- | --- | --- | --- | --- | --- | --- | --- |
| CC[C@H](C)[C@@H]1NC(=O)[C@H](CC(=O)O)NC(=O)[C@]2(CC=CCCCC3(CCCC=CCCCCCC[C@@](C)(C(=O)N[C@@H](Cc4ccccc4)C(=O)N[C@@H](Cc4csc5ccccc45)C(=O)N[C@@H](CCC(N)=O)C(N)=O)NC(=O)[C@H](CCC(N)=O)NC(=O)[C@H](Cc4ccccc4)NC(=O)[C@H](Cc4c[nH]c5ccccc45)NC(=O)[C@H](C)NC(=O)[C@H](CCC(=O)O)NC(=O)[C@H](CC(=O)O)NC3=O)NC1=O)CCCN2C(C)=O (stereo partly drawn) [I-664, Ac-PL3-Asp-Ile-B5-Asp-Glu-Ala-Trp-Phe-Gln-S8-Phe-BztA-Gln-NH2] | 2.433 | 996 | 996 | 45 (≈ 89.9 µg/mL) | – | – | – |
| CC(=O)N1CCC[C@]12CC=CCCCC1(CCCC=CCCCCCC[C@@](C)(C(=O)N[C@@H](Cc3ccccc3)C(=O)N[C@@H](Cc3csc4ccccc34)C(=O)N[C@@H](CCC(N)=O)C(N)=O)NC(=O)[C@H](CC(N)=O)NC(=O)[C@H](Cc3ccccc3)NC(=O)[C@H](C)NC(=O)[C@H](C)NC(=O)[C@H](CC(=O)O)NC(=O)[C@H](CC(=O)O)NC1=O)NC(=O)[C@H](C)NC(=O)[C@H](CC(=O)O)NC2=O (stereo partly drawn) [I-344, Ac-PL3-Asp-Ala-B5-Asp-Asp-Ala-Ala-Phe-Asn-S8-Phe-BztA-Gln-NH2] | 1.977 | – | – | 44 (≈ 79.8 µg/mL) | 42 | 42 | – |
| CC[C@H](C)[C@@H]1NC(=O)[C@H](CC(=O)O)NC(=O)[C@]2(CC=CCCCC3(CCCC=CCCCCCC[C@@](C)(C(=O)N[C@@H](Cc4ccccc4)C(=O)N[C@@H](Cc4csc5ccccc45)C(=O)N[C@@H](Cc4c[nH]c5ccccc45)C(N)=O)NC(=O)[C@H](CCC(N)=O)NC(=O)[C@H](Cc4ccccc4)NC(=O)[C@H](C)NC(=O)[C@H](C)NC(=O)[C@H](CCC(=O)O)NC(=O)[C@H](CC(=O)O)NC3=O)NC1=O)CCCN2C(C)=O (stereo partly drawn) [I-643, Ac-PL3-Asp-Ile-B5-Asp-Glu-Ala-Ala-Phe-Gln-S8-Phe-BztA-Trp-NH2] | 2.833 | 958 | 958 | 28 (≈ 54.4 µg/mL) | – | – | – |
| CC(=O)N1CCC[C@]12CC=CCCCC1(CCCC=CCCCOC(=O)N3CC[C@@](C(=O)N[C@@H](Cc4ccsc4)C(=O)N[C@@H](Cc4csc5ccccc45)C(=O)N[C@@H](CO)C(N)=O)(C3)NC(=O)[C@H](CO)NC(=O)[C@H](Cc3ccccc3)NC(=O)[C@H](C)NC(=O)[C@H](C)NC(=O)[C@H](Cc3cccc(C(=O)O)c3)NC(=O)[C@H](CC(=O)O)NC1=O)NC(=O)[C@H](CC(C)(C)C)NC(=O)[C@H](CC(=O)O)NC2=O (stereo partly drawn) [I-984, Ac-PL3-Asp-Npg-B5-Asp-3COOHF-Ala-Ala-Phe-Ser-PyrS2-3Thi-BztA-Ser-NH2] | 1.8 | – | – | 45 (≈ 86.7 µg/mL) | – | 179 | 179 |

The remaining lines, values ahead:

| CHI Log D (CHI Log D procedure) | IC50 [1, 2] [nM] | IC50 ([1]; read-out: FP EC50) [nM] | Solubility (Solubility in PBS) [µM] | IC50 ([1]; Table E2-1, read-out: beta-Catenin FP IC50) [nM] | IC50 [1, 3] [nM] | IC50 ([1]; read-out: beta-Catenin FP IC50) [nM] | SMILES |
| --- | --- | --- | --- | --- | --- | --- | --- |
| 1.802 | – | – | 46 (≈ 90.9 µg/mL) | – | 1440 | 1440 | CCN(CC(=O)O)C[C@@H]1NC(=O)[C@H](CC(=O)O)NC(=O)C2(CCCC=CCCCOC(=O)N3CC[C@@](C(=O)N[C@@H](Cc4ccsc4)C(=O)N[C@@H](Cc4csc5ccccc45)C(=O)N[C@@H](CCC(N)=O)C(N)=O)(C3)NC(=O)[C@H](CC(N)=O)NC(=O)[C@H](Cc3ccccc3)NC(=O)[C@H](C)NC(=O)[C@H](C)NC1=O)CCCC=CC[C@]1(CCCN1C(C)=O)C(=O)N[C@@H](CC(=O)O)C(=O)N[C@@H](CC(C)(C)C)C(=O)N2 (stereo partly drawn) [I-964, Ac-PL3-Asp-Npg-B5-Asp-EtGA-Ala-Ala-Phe-Asn-PyrS2-3Thi-BztA-Gln-NH2] |
| 2.053 | – | – | 13 (≈ 24.9 µg/mL) | – | 950 | 950 | CC(=O)N1CCC[C@]12CC=CCCCC1(CCCC=CCCCOC(=O)N3CC[C@@](C(=O)N[C@@H](Cc4ccccc4Cl)C(=O)N[C@@H](Cc4csc5ccccc45)C(=O)N[C@H](C(N)=O)[C@@H](C)O)(C3)NC(=O)[C@H](CC(C)C)NC(=O)[C@H](Cc3ccccc3)NC(=O)[C@H](C)NC(=O)[C@H](C)NC(=O)[C@H](CC(=O)O)NC(=O)[C@H](CC(=O)O)NC1=O)NC(=O)[C@H](CC(C)(C)C)NC(=O)[C@H](CC(=O)O)NC2=O (stereo partly drawn) [I-1068, Ac-PL3-Asp-Npg-B5-Asp-Asp-Ala-Ala-Phe-Leu-PyrS2-2C1F-BztA-Thr-NH2] |
